Source: patent publication EP0037049A1, “Biphenylyl-imidazolylethane derivatives, process for their preparation and medicaments containing them” (BAYER AG, priority 1980, dated 1981)

Tested on: Dermatophyten, Schimmelpilze, Hefen
Test: Antifungal in-vitro activity, serial dilution test
Assay type: cell-based
Conditions: incubation at 28°C, 24 h for yeasts, 96 h for dermatophytes and moulds, activity stated to be superior to prior-art compounds (A), (B), (C) and (D)
Protocol: Die in-vitro-Prüfung wurde im Reihenverdünnungstest mit Keiminokula von durchschnittlich […] Substrat durchgeführt. Als Nährmedium dienten • a) für Dermatophyten und Schimmelpilze: Sabourand's milieu d'epresive • b) für Hefen: • Isotonic Sensitest-Broth von Oxid.
Die Bebrütungstemperatur betrug 28°C; Bebrütungsdauer war 24 Stunden bei Hefen und 96 Stunden bei Dermatophyten und Schimmelpilzen.

Row | SMILES | Antimykotische in-vitro-Wirksamkeit (Wirkung)
1 | Clc1cccc(C(Cn2ccnc2)c2ccc(-c3ccccc3)cc2)c1 (stereo not shown) [Beispiel 7] | sehr gute Wirkung
2 | Fc1ccccc1C(Cn1ccnc1)c1ccc(-c2ccccc2)cc1 (stereo not shown) [Beispiel 6] | sehr gute Wirkung
3 | Clc1ccc(-c2ccc(C(Cn3cncn3)c3ccccc3Cl)cc2)cc1 (stereo not shown) [Beispiel 8] | sehr gute Wirkung
4 | Clc1ccccc1C(Cn1ccnc1)c1ccc(-c2ccccc2)cc1 (stereo not shown) [Beispiel 5] | sehr gute Wirkung
